Results taken from publication PMC6271227, “Biopharmaceutical Profiling of New Antitumor Pyrazole Derivatives” (Molecules, 2014).

Key:
[1] = Analysis by the general solubility equation (GSE): logP and melting point; type: physicochemical; conditions: Mp >200 °C, moderate lipophilicity
Excerpt: The general solubility equation (GSE) developed by Jain et al. provides a quantitative relationship between the three parameters: log Sw = 0.5 − 0.01(Mp − 25) − log P(1)
Starting from the general solubility equation, the poorly soluble drugs were sub-classified by the group of Bergström et al. in two types of molecules: “grease ball” and “brick dust” molecules. […] These compounds cannot form bonds with water molecules, and therefore their solubility is limited by the solvation process. By contrast, “brick dust” molecules are usually compounds with rather rigid and flat molecules with a high melting point (>190 °C) and moderate lipophilicity. Their solubility is being solid-state-limited being mainly restricted by the inability of the compound to dissociate from the crystal lattice and can generally be improved by different methods involving a disruption of the stable crystal lattice.

NCI 60 cancer lines = tested on: NCI 60 cancer lines; parameters: method as in PMID 20728965; conditions: cited from earlier work
[2] = the 43 lines with logCI50 under −4

SMILES | type of poorly soluble molecule (grease ball / brick dust) [1] | number of the NCI 60 cancer lines with logCI50 under −4 (NCI 60 cancer lines) | logCI50 average (NCI 60 cancer lines; [2]) | logCI50 values (range) (NCI 60 cancer lines; [2])
Cc1ccc(C(=O)NC(=S)Nc2cc(C)nn2-c2ccccc2)cc1 [BM5] | brick dust | – | – | –
Cc1cc(NC(=S)NC(=O)c2ccc(Cl)cc2)n[nH]1 [BC2] | brick dust | – | – | –
Cc1cc(NC(=S)NC(=O)c2ccccc2)n[nH]1 [BT2] | brick dust | – | – | –
O=C(NC(=S)Nc1cc(-c2ccc(Br)cc2)n[nH]1)c1ccccc1 [N-benzoyl-N'-[3-(4-bromophenyl)-1H-pyrazol-5-yl]-thiourea] | – | 43 | −5.02 | −4.12 to −5.75
Cc1ccc(C(=O)NC(=S)Nc2cc(C)[nH]n2)cc1 [BM2] | brick dust | – | – | –
